Laboratory results from PMC12040169 (PLOS Biology, 2025).

assay: in vitro; conditions: human, hela cells, % viability

Row | Structure (SMILES) | viability at 28.5 h, 10 µM [%]
1 | COc1ccc(C(=O)NCCc2nc3ccccc3[nH]2)cc1 [CBK261040] | 101
2 | O=C(COc1ccc(Cl)cc1)NNC(=O)c1cccnc1 [CBK261044] | 97.4
3 | O=C(/C=C/c1ccccc1)NC(NC(=S)Nc1cccc2cccnc12)C(Cl)(Cl)Cl (centres unmarked) [CBK261046] | 101
4 | CC(C)C(=O)NC(NC(=S)Nc1sc2c(c1C(N)=O)CCCC2)C(Cl)(Cl)Cl (centres unmarked) [CBK261050] | 94
5 | CC(C)(C)C(=O)NC(NC(=S)Nc1sc2c(c1C(N)=O)CCCC2)C(Cl)(Cl)Cl (centres unmarked) [CBK261052] | 94.7
6 | Cc1ccc(S(=O)(=O)N/N=C(/c2ccccc2)c2ccc(OCC(C)C)cc2)cc1 [CBK261056] | 87.8
7 | O=[N+]([O-])c1ccc(/C=N/CCCN2CCOCC2)cc1 [CBK261058] | 87.5
8 | CCOC(=O)/C(=N/Nc1cccc(C)c1)c1csc(N)n1 [CBK261059] | 97.9
9 | O=C(COc1ccc(Cl)cc1Cl)NC(Cc1ccccc1)C(=O)O (centres unmarked) [CBK261061] | 102
10 | O=C(O)CSc1c(NC(=O)c2ccccc2)sc2c1CCCC2 [CBK261062] | 97.5
11 | c1nncn1/N=C1/CCCc2nonc21 [CBK261065] | 91.8
12 | O=C(NC(=S)Nc1ccc(S(=O)(=O)Nc2nccs2)cc1)C12CC3CC(CC(C3)C1)C2 [CBK261067] | 101
13 | NC(=O)NS(=O)(=O)c1ccc(NC(=S)NC(=O)c2ccco2)cc1 [CBK261068] | 117
14 | Cc1nc2c([N+](=O)[O-])c3c(c([N+](=O)[O-])c2[nH]1)Nc1nonc1N3 [CBK261069] | 107
15 | CC(C)(C)N=C1c2nn(Cc3ccccc3)nc2C(=NC(C)(C)C)c2nn(Cc3ccccc3)nc21 [CBK261070] | 103
16 | CC(C)(C)c1cc(C(C)(C)C)cc(S(=O)(=O)CCc2ccccn2)c1 [CBK261073] | 88.4
17 | c1cc2c3c(ccc(CSCCc4ccncc4)c3c1)CC2 [CBK261074G] | 90.4
18 | O=C(O)c1ccccc1NC1SC(=O)N(c2ccccc2)C1=O (centres unmarked) [CBK261078] | 93.7
19 | O=C(O)CCC(=O)NNC(=O)c1ccccc1[N+](=O)[O-] [CBK261079] | 95.8

Row | Structure (SMILES) | viability at 28.5 h, 10 µM [%]
20 | O/N=C(\Cn1cncn1)c1ccc(Cl)cc1Cl [CBK261085] | 93.5
21 | COc1cc(-c2ccc(/N=C/c3ccccc3O)c(OC)c2)ccc1/N=C/c1ccccc1O [CBK261089] | 101
22 | CC(C)(C)NC(NC(=O)Cc1ccccc1)C(Cl)(Cl)Cl (centres unmarked) [CBK261090] | 86.5
23 | O=C(NC(NC1CCS(=O)(=O)C1)C(Cl)(Cl)Cl)c1ccc(Br)cc1 (centres unmarked) [CBK261091] | 98.2
24 | CN(C)CCO/N=C(\c1ccccc1)c1ccncc1 [CBK261095G] | 94.2
25 | O=C(O)c1cccc(NC(=O)c2c(C(=O)O)cccc2[N+](=O)[O-])c1 [CBK261096] | 99.6
26 | O=C(O)c1cccc(NCN2C(=O)c3ccc([N+](=O)[O-])cc3C2=O)c1 [CBK261100] | 96
27 | O=C(O)c1ccc(C(=O)O)c(-c2ccccc2)c1 [CBK261102] | 104
28 | CCOP(=O)(O)c1c([N+](=O)[O-])cc(C(F)(F)F)cc1[N+](=O)[O-] [CBK261106G] | 103
29 | CC(C)NCC(O)Cn1c2c(c3ccccc31)CCc1c-2cnn1-c1ccccc1 (centres unmarked) [CBK261107] | 99.6
30 | Nc1nonc1C(=NCc1ccccc1)NO [CBK261109] | 105
31 | NS(=O)(=O)c1ccc(Nc2nc3nonc3nc2Nc2ccc(S(N)(=O)=O)cc2)cc1 [CBK261110] | 97.5
32 | O=C(Nn1cnnc1)c1ccc(C(=O)Nn2cnnc2)cc1 [CBK261111] | 101
33 | O=C(NC(C(=O)N/N=C/c1ccc(Cl)cc1Cl)c1n[nH]c(=O)c2ccccc12)c1ccccc1 (centres unmarked) [CBK261118] | 103
34 | Cc1ccc(S(=O)(=O)Nc2cc(C)on2)cc1 [CBK261119] | 93.7
35 | O=C(CNc1ccc2ccccc2c1)N/N=C/c1cc2c(cc1[N+](=O)[O-])OCO2 [CBK261126] | 83.1
36 | O=C(Nc1cccc2nsnc12)c1cc(Cl)ccc1NS(=O)(=O)c1cccc2nsnc12 [CBK261129] | 80.9
37 | CCN1CCN(c2ccc(Nc3ccnc4cc5ccccc5cc34)cc2)CC1 [CBK261130] | 79.8
38 | COc1ccc(N(CCN2CCCCC2)S(=O)(=O)c2ccc(C)cc2)cc1 [CBK261131] | 98.7

Row | Structure (SMILES) | viability at 28.5 h, 10 µM [%]
39 | O=S(=O)(NCCN1CCCC1)c1cccc2nsnc12 [CBK261132] | 97.3
40 | O=C1c2ccccc2C(=O)N1CC1c2ccccc2CCN1S(=O)(=O)c1cccc2nsnc12 (centres unmarked) [CBK261133] | 108
41 | O=C1CN(S(=O)(=O)CCOc2ccccc2)CC(=O)N1CCc1ccccc1 [CBK261134] | 92.8
42 | O=S(=O)(NCc1nc2ccccc2[nH]1)c1ccc(Cl)c(Cl)c1 [CBK261137] | 86.2
43 | N#CCCN(CCc1ccccc1)S(=O)(=O)c1cccc2nsnc12 [CBK261138] | 104
44 | Cc1ccc(S(=O)(=O)NCC(=O)O)c2nsnc12 [CBK261140] | 93.1
45 | Brc1cccc(/C=N/c2ccc3nc(-c4ccccc4)[nH]c3c2)c1 [CBK261143] | 109
46 | NNC(=O)C(NC(=O)c1ccccc1)c1n[nH]c(=O)c2ccccc12 (centres unmarked) [CBK261144] | 92.9
47 | Nc1ccc(Cc2ccc(N)c(O)c2)cc1O [CBK261149] | 100
48 | N#Cc1ccc(Oc2ccc3c(c2)-c2cc(Oc4ccc(C#N)c(C#N)c4)ccc2S3(=O)=O)cc1C#N [CBK261151] | 92.4
49 | Nc1ccc(-c2nc(-c3ccccc3)c3cc(-c4ccc5nc(-c6ccc(N)cc6)nc(-c6ccccc6)c5c4)ccc3n2)cc1 [CBK261152] | 107
50 | Nc1ccc(Cc2ccc(N)c(C(=O)O)c2)cc1C(=O)O [CBK261153] | 92.3
51 | Cc1ccc(S(=O)(=O)Nc2ccc(C3(c4ccc(NS(=O)(=O)c5ccc(C)cc5)cc4)c4ccccc4-c4ccccc43)cc2)cc1 [CBK261154] | 102
52 | N#Cc1ccc(Oc2cccc(/N=C/c3ccc(/C=N/c4cccc(Oc5ccc(C#N)cc5)c4)cc3)c2)cc1 [CBK261157] | 93.7
53 | OB(O)c1ccc(Oc2ccc(B(O)O)cc2)cc1 [CBK261159] | 102
54 | O=C1c2ccccc2C(c2ccc(NC(=O)c3cccc4ccccc34)cc2)(c2ccc(NC(=O)c3cccc4ccccc34)cc2)c2ccccc21 [CBK261162] | 103
55 | O=C(Nc1ccc(C2(c3ccc(NC(=O)c4cccc5ccccc45)cc3)c3ccccc3-c3ccccc32)cc1)c1cccc2ccccc12 [CBK261163] | 102
56 | O=C(Nc1ccc(-c2c3ccccc3c(-c3ccc(NC(=O)c4cccc5ccccc45)cc3)c3ccccc23)cc1)c1cccc2ccccc12 [CBK261164] | 93.6

same assay, conditions: human, hela cells, % viability, bulk resorufin, single well

Row | Structure (SMILES) | viability at 28.5 h, 10 µM [%]
57 | CC(C)C(Nc1c([N+](=O)[O-])cc(C(F)(F)F)cc1[N+](=O)[O-])C(=O)O (centres unmarked) [CBK261041] | 96.4
58 | O=C1NC(=O)N(Cc2ccccc2)C(=O)/C1=N\Nc1ccc([N+](=O)[O-])cc1 [CBK261123] | 94.5
59 | CCOc1ccc(N2C(=O)NC(=O)/C(=C\NCCc3c[nH]c4ccccc34)C2=O)cc1 [CBK261125] | 104
